# Laboratory results from patent publication US11547101B2, “Non-human animals having a disruption in a C9ORF72 locus” (Regeneron Pharmaceuticals, Inc., priority 2015, dated 2023).
# Key:
# [1] = tested on: wild type mice; test: ALS-like phenotype in wild type mice given weekly i.p. BMAA (body weight, rotarod, open field, catwalk); assay type: in vivo, mouse; conditions: BMAA 500 mg/kg weekly i.p. for six weeks, FIGS. 5A-5D
# Protocol: In another experiment, wild type mice were administered weekly i.p. injections of BMAA (500 mg/kg) or PBS (control) for six weeks starting at week 1 (FIG. 5A, top). Body weight measurements were recorded each week up to 6 weeks, week 14 and week 18. Analysis of motor impairment via rotarod, open field locomotor, and catwalk testing (as described above) were recorded at the start of the experiment (week 0, 10-weeks old), every other week up to 6 weeks, week 14 and week 18.
# [2] = tested on: C9orf72−/− motor neurons; test: Oxidative stress (ROS, CellROX Green) of cultured C9orf72−/− motor neurons exposed to BMAA; assay type: cell-based, mouse; conditions: 100 mM BMAA, measured at days 1 and 7, FIG. 7
# Protocol: In another experiment, motor neurons from C9orfF72^−/− mice were cultured as described above (see also FIG. 7) and treated with antisense oligonucleotides that selectively target sense strand repeat-containing RNAs and reduce sense-oriented RNA foci without affecting overall C9orf72 expression. Treatment was followed by addition of 100 mM BMAA. Survival and oxidative stress of cultured motor neurons were measured at days 1 and 7. Briefly, oxidative stress of plated embryonic stem cell-derived motor neurons (described above) was assessed by measuring the Reactive Oxygen Species (ROS) levels in the cells using Life Technologies' CellROX Oxidative Stress Green reagent at a final concentration of 5 μM and incubating for 30 minutes at 37° C. After incubation, cells were washed three times with PBS and fluorescence was measured using a standard microplate fluorometry.
# [3] = tested on: C9orf72−/− mice; test: ALS-like phenotype in aged C9orf72−/− mice given weekly i.p. BMAA (body weight, motor scores, rotarod, open field, catwalk); assay type: in vivo, mouse; conditions: 32-week old C9orf72−/− mice, BMAA 500 mg/kg weekly i.p. for six weeks; FIGS. 6A-6E
# Protocol: In another experiment, aged (i.e., 32-week old) wild type and C9orf72^−/− mice were administered weekly i.p. injections of BMAA (500 mg/kg) or PBS (control) for six weeks. Body weight measurements were recorded each week up to 38 weeks starting at day zero (i.e., 32 weeks). Analysis of motor impairment via rotarod, open field locomotor, and catwalk testing (as described above) were also recorded at the start of the experiment (week 0, […]) and every other week up to 38 weeks. Table 6 sets forth the scoring methodology related to motor impairment, tremor and rigidity of animals during testing.
# [4] = tested on: cultured wild type motor neurons; test: Survival of cultured embryonic stem cell-derived wild type motor neurons treated with BMAA (cell counts, trypan blue); assay type: cell-based, mouse; conditions: wild type motor neurons in ESMN with BMAA at 0.1-100 μM; FIG. 4
# Protocol: Briefly, mouse embryonic stem cells are cultured and differentiated into motor neurons, during an eight-day period. The first day, previously frozen mouse embryonic stem cells are thawed and added to a 15 mL falcon tube with five mL of embryonic stem cell medium (ES medium: DMEM with 15% FBS, 1% pen/strep., 1% glutamine, 1% non-essential amino acids, 1% nucleosides, 0.1% β-mercaptoethanol, 1% sodium-pyruvate, and LIF at 10000 unit/mL), The tube is then centrifuged for five minutes at 800 rpm. The supernatant is aspirated and the cells suspended in 10 mL of ES medium. The cells are then plated on a T75 flask that is coated with 10 mL of 0.1% gelatin and incubated for 30 minutes at 37° C. to facilitate attachment to the flask bottom. The cells are then incubated overnight. The following day the medium exchanged with fresh medium for survival.
# The following day medium is aspirated from the flask. The flask is washed with 10 mL of PBS, and then 5 mL of trypsin is added to detach the cells from the bottom of the flask. The cells are incubated for five minutes at 37° C. Detachment is confirmed by checking the flask under a microscope. […]
# After three days embryoid bodies (EB) that form are dissociated. […] The cells are then counted using a Countess automatic cell counter (Life Technologies) and 0.5 to 1 million cells are plated with 2 mL ESMN medium per well in each six well plate. […]
smiles,measurement,setting,value
"CNC[C@H](N)C(=O)O [BMAA, β-Methylamino-L-alanine]",induction of ALS-like phenotype,[1],did not induce an ALS-like phenotype
same,oxidative stress (Reactive Oxygen Species levels),[2],increased oxidative stress
same,effect on ALS-like motor phenotype,[3],mildly exacerbates
same,effect on increased inactivity and gait abnormalities,[3],does not affect
same,survival of cultured motor neurons (percentage of live neurons to control),[4],kills cultured wild type motor neurons in a dose-dependent manner
